This note sets out measurements from article PMC11071649, “Synthesis and Selective Anticancer Activity Evaluation of 2-phenylacrylonitrile Derivatives as Tubulin Inhibitors” (Current Medicinal Chemistry, 2024).

A value given as a limit tells only on which side of the number the result lay.

Common to all, as to format: cell-based, human
In assay [1] the test system is MGC-803 late stage differentiation gastric cancer cell. As to the kind of experiment: MTT anti-proliferative assay, MGC-803. The note with it: for IC50: MTT, 48 h. An outline of the steps:
(§1)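 Human cell lines were obtained from ATCC and cultured in DMEM with FBS. Cells were plated in 96-well plates, exposed to compounds and assessed by MTT read-out. Activity was expressed as inhibition of net cell growth.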
(In general: Tetrazolium dyes change colour on reduction, which living cells bring about.)

For assay [2], the system named is AGS gastric cancer cell. As to the kind of experiment: MTT anti-proliferative assay, AGS. The note with it: for IC50: MTT, 48 h. The method, boiled down: as §1
The test system of assay [3] is MCF-10A normal breast cell. In words: MTT assay, MCF-10A normal cells. The note with it: 48 h. An outline of the steps:
as §1

Assay [4] has as its system diffuse large B-cell lymphoma SU-DHL-10 cell. As to the kind of experiment: MTT anti-proliferative assay, SU-DHL-10. The note with it: MTT, 48 h; read-out: IC50 SU-DHL-10. The method, boiled down: as §1
For assay [5], the system named is BEL-7402 liver cancer cell. As to the kind of experiment: MTT anti-proliferative assay, BEL-7402. The note with it: for IC50: MTT, 48 h. An outline of the steps: as §1
Assay [6] has as its system L-02 normal liver cell. As to the kind of experiment: MTT assay, L-02 normal cells. The note with it: 48 h. The method, boiled down: as §1
In assay [7] the test system is HepG2 hepatoma cell. As to the kind of experiment: MTT anti-proliferative assay, HepG2. The note with it: for IC50: MTT, 48 h, read-out: IC50 HepG-2. The method, boiled down:
as §1

In assay [8] the test system is Raji B lymphoblastoid cell. As to the kind of experiment: MTT anti-proliferative assay, Raji. The note with it: for IC50: MTT, 48 h, read-out: IC50 Raji. An outline of the steps:
as §1

Assay [9] concerns SGC-7901 early differentiation gastric cancer cell. In words: MTT anti-proliferative assay, SGC-7901. The note with it: for IC50: MTT, 48 h. An outline of the steps: as §1
Assay [10] concerns HeLa cervical cancer cell. As to the kind of experiment: MTT anti-proliferative assay, HeLa. The note with it: MTT, 48 h. An outline of the steps:
as §1

Assay [11] has as its system MCF-7 breast cancer cell. As to the kind of experiment: MTT anti-proliferative assay, MCF-7. The note with it: MTT, 48 h. An outline of the steps: as §1
Assay [12] has as its system A549 lung cancer cell. As to the kind of experiment: MTT anti-proliferative assay, A549. The note with it: MTT, 48 h. The method, boiled down:
as §1

The subject of assay [13] is HCT116 colectal cancer cell. In words: MTT anti-proliferative assay, HCT116. The note with it: for IC50: MTT, 48 h, read-out: IC50 HCT-116. The method, boiled down:
as §1

The term IC50 denotes the midpoint of a concentration-inhibition curve. For `N#C/C(=C\c1ccc(N2CCOCC2)cc1)c1cccc(OC(F)(F)F)c1` [Compound 1b2i], the “SI (selectivity index), IC50 (L-02)/IC50 (MGC-803)” value in assay [1] is on record as greater than 2.6. Also, the IC50 in assay [1] was determined as 10.8 ± 2.9 µM; in assay [2], 23.9 ± 2.7 µM; in assay [3], 79.6 ± 5.7 µM; in assay [4], 53.6 ± 7.5 µM; in assay [5] it was 13 ± 1.1 µM; in assay [6] it was 28.5 ± 0.8 µM. Further, the IC50 was 23.5 ± 4.3 µM in assay [7]; 23.7 ± 2.1 µM in [8]; 46 ± 4.9 µM in [9]; greater than 100 µM in [10]; greater than 100 µM in assay [11]; greater than 100 µM in [12]. In [13], the IC50 worked out at 12.3 ± 1.6 µM. In assay [2], the “SI (selectivity index), IC50 (L-02)/IC50 (AGS)” value is given as greater than 1.1. Moreover, the “SI (selectivity index), IC50 (L-02)/IC50 (BEL-7402)” value in [5] is greater than 2.1. Besides, the “SI (selectivity index), IC50 (L-02)/IC50 (HepG-2)” value in [7] is greater than 1.2. Moreover, the “SI (selectivity index), IC50 (L-02)/IC50 (Raji)” value in assay [8] is greater than 1.1. Moreover, the “SI (selectivity index), IC50 (L-02)/IC50 (HCT-116)” value in [13] is reported as greater than 2.3.
Take `COc1ccc(/C=C(\C#N)c2cccc(OC(F)(F)F)c2)cc1` [Compound 1b2j]: the 50% inhibitory concentration (IC50) in assay [1], in [2], in assay [3], in [4], in assay [5] and in [6] was greater than 100 µM in each case. The IC50 in assay [7] was greater than 100 µM; in [8], greater than 100 µM; in assay [9] it was 72.1 ± 4.5 µM; in assay [10] it was greater than 100 µM; in assay [11], greater than 100 µM; in assay [12], greater than 100 µM. Besides, the IC50 in [13] is greater than 100 µM. Also, the “SI (selectivity index), IC50 (L-02)/IC50 (SGC-7901)” value in assay [9] was greater than 1.3.
For `CCCOc1ccc(/C=C(\C#N)c2cccc(OC(F)(F)F)c2)cc1` [Compound 1b2k], the IC50 in [1], in [2], in assay [3], in assay [4], in [5] and in [6] was greater than 100 µM in each case. Further, the IC50 in [7], in [8], in assay [9], in [10], in [11] and in assay [12] was greater than 100 µM each time. In [13], the IC50 was greater than 100 µM.
`N#C/C(=C\c1ccccn1)c1cccc(OC(F)(F)F)c1` [Compound 1b3a]: the IC50 in assay [1] was 20.7 ± 1.5 µM; in [2] it was 15.4 ± 0.5 µM; in assay [3], 22.7 ± 3.5 µM; in assay [4], 59.7 ± 0.8 µM; in [5] it was greater than 100 µM; in [6], 35.9 ± 1.6 µM. Besides, the IC50 in assay [7] was found to be 21.5 ± 7.6 µM; in assay [8], 56.6 ± 5.8 µM; in assay [9] it was 20.9 ± 5.1 µM; in assay [10] it was 38.8 ± 3.5 µM; in [11] it was 25.5 ± 0.4 µM; in assay [12], 32.6 ± 1.1 µM. The 50% inhibitory concentration (IC50) in assay [13] is 19.3 ± 0.1 µM. Moreover, the “SI (selectivity index), IC50 (L-02)/IC50 (BEL-7402)” value in [5] is reported as greater than 5.2.
For the molecule `N#C/C(=C\c1ccccc1)c1ccccc1OC(F)(F)F` [Compound 1c2a], the half-inhibitory concentration (IC50) in assay [1], in assay [2], in assay [3], in assay [4], in assay [5] and in assay [6] was greater than 100 µM each time. The IC50 in [7], in assay [8], in assay [9], in assay [10], in assay [11] and in assay [12] was greater than 100 µM throughout. In addition, in [13], the IC50 is greater than 100 µM.
